Test results published in patent US8097624B2, “Cycloalkyl derivatives of 3-hydroxy-4-pyridinones” (Apotex Inc., priority 2006, dated 2012).
Values joined by “and” are separate entries in the source; they are usually repeats but may differ in a detail not shown here. Identical values can stand only once.

What was measured:
[1] = pKa determination by potentiometric or spectrophotometric titration; assay type: physicochemical; details: titration in 0.1 M NaCl at 22° C.
Experimental: The pKa values of ligands were determined by potentiometric titration when a ligand concentration greater than 1×10^−2 M in water could be prepared. In a typical experiment, the sample solution (2.67×10^−2 M) was prepared by the following method: Apo6619 (92.6 mg) was weighed into a 25-ml beaker, followed by the addition of 0.1 M NaCl (15 ml). The mixture was sonicated for 10 minutes to give a clear colorless solution. Nitrogen gas was then allowed to bubble through the solution. 1.000 N Hydrochloric acid (624 μl, 1.5 equivalent) was added to the solution to give pH 1.88. The solution was allowed to equilibrate at 22° C. for 60 minutes.
The solution was then titrated against 1.000 N NaOH at 22° C. to reach pH 11.8. For each addition of base, the solution was allowed to equilibrate until a constant pH reading was reached. The volume of the base added and the pH reading were recorded for each measurement. 137 measurements were taken to finish the experiment.
The data set of pH vs. base volume was analyzed using Hyperquad 2000 (Version 2.1, Peter Gans, University of Leeds).
The pKa values of ligands can be determined by spectrophotometric titration when both the conjugated acid and base absorb in the UV-Visible region. In a typical experiment, the sample solution was prepared by the following method: Apo6617 (0.792 mg) was weighed into an 80-ml beaker, followed by the addition of 0.1 M NaCl (50 ml). The mixture was sonicated for 5 minutes to give a clear colorless solution. Nitrogen gas was allowed to bubble through the solution. 1.000 N NaOH (50 μl) was added to give pH 10.9. The solution was allowed to equilibrate at 22° C. for 1 hour. A sipper system was used for the circulation of the sample solution between the beaker and the flow cell.
The sample solution was titrated against standard hydrochloric acid solutions at 22° C. to reach pH 1.40. After each addition of acid the solution was allowed to equilibrate until a constant pH reading was reached. The pH and the UV-Vis spectrum were recorded for each measurement. The peak wavelengths of the deprotonated species (L^−), the neutral species (LH), and the protonated species (LH2^+) were 314 nm, 281 nm, and 249 nm, respectively. In the region of pH>6, after each addition of acid there was a slight decrease in the absorbance at 314 nm and a slight increase at 281 nm in each spectrum, whereas in the region of pH<5, after each addition of acid there was a slight decrease in the absorbance at 281 nm and a slight increase at 249 nm in each spectrum. The solution was titrated until there was no obvious change in the spectra after several subsequent additions of acid. 116 measurements were taken to finish the experiment.
The resulting data set was then analyzed using pHAB (Peter Gans, University of Leeds).

[2] = Distribution coefficient determination (D7.4), 1-octanol / MOPS buffer; assay type: physicochemical; details: 1-octanol / MOPS buffer pH 7.4
Experimental: MOPS buffer (50 mM, pH=7.4) and 1-octanol were used as the aqueous phase and the organic phase, respectively, for distribution coefficient determinations. The MOPS buffer and 1-octanol were pre-saturated with each other before use.
In a typical experiment, an organic stock solution of Apo6618 (1-cyclopropyl-3-hydroxy-6-methyl-4-oxo-1,4-dihydro-pyridine-2-carboxylic acid cyclopropylamide) was prepared by weighing out 0.50 mg of the compound into a 10-mL volumetric flask and bringing to volume with 1-octanol. The solution was then sonicated for 60 minutes so that the sample could dissolve completely. The concentration of the stock solution was calculated as C^0org=2.0×10^−4 M. The organic standard solution of Apo6618 with 2.0×10^−5 M was prepared in a 10-mL volumetric flask by 10 times dilution of the stock solution with 1-octanol. The sample solution was prepared in a 10-mL volumetric flask. The stock sample solution (3 ml) was pipetted into the flask followed by the addition of MOPS buffer (3 ml). The standard and sample solutions were then vortexed for 2 hours. After vortexing, the solutions were transferred to test tubes and centrifuged at 4000 rpm for 15 minutes. UV-Vis spectra were recorded for the standard solution and the organic (top) phase of the sample solution at 22° C. The distribution coefficient, D7.4, was calculated using the following equation: D7.4=[Aorg/(C^0orgεorg−Aorg)]×(Vaqu/Vorg)
Where εorg=the molar extinction coefficient of the peak wavelength (λmax) obtained from the UV-Vis spectrum of the organic standard solution; Aorg=absorbance of the organic phase in the sample solution at the same λmax; C^0org=the concentration of the stock solution; Vaqu=the volume of MOPS buffer in the sample solution; Vorg=the volume of the stock solution in the sample solution.

[3] = test system: Iron Overloaded Rats; assay: Second rat study: urinary and fecal iron excretion at 28, 113 and 450 μmoles/kg; assay type: in vivo; details: n=6/group, mean ± 1SD
Experimental: A second study was conducted to confirm the efficacy results of Apo6619 and Apo6617 observed in the above study and to further characterize the efficacy of these compounds at doses lower than 450 μmol/kg. The study was conducted in two separate groups of iron overloaded rats. The method of iron overloading, preparation of dosing solutions and assessment of efficacy in these rats was similar to that described in the above study.
The first group of rats (n=6) were treated with Apo6619 consecutively at doses of 28, 113 and 450 μmoles/kg. Similarly, the second group of rats (also n=6) was treated with Apo6617 at these same three doses. Similar to the previous study, both Apo6619 and Apo6617 produced an increase in urinary iron excretion at the 450 μmoles/kg dose (Apo6619: 11±3 at baseline to 335±76 1-day post-Apo6619, p=0.0001; Apo6617: 14±4 at baseline to 183±20 1-day post-Apo6617, p=0.0003). […] At 28 μmoles/kg, only Apo6617 produced an increase in iron excretion (p=0.01) above baseline. However, the magnitude of the increased excretion was small for both Apo6619 and Apo6617.

[4] = Drug Metab. Dispo. 1992; cited from earlier work

| pKas (higher value, phenolic C3 OH) [1] | pKas (lower value, LH2+) [1] | melting point | D7.4 [2] | SMILES | Iron excretion, Urine (1 day post-chelator) ([3]; 28 μmol/kg) [µg/day/kg] | Iron excretion, Feces (3 days) ([3]; 113 μmol/kg) [µg/day/kg] | Iron excretion, Urine (1 day post-chelator) ([3]; 113 μmol/kg) | Iron excretion, Feces (3 days) ([3]; 450 μmol/kg) [µg/day/kg] | Iron excretion, Urine (1 day post-chelator) ([3]; 450 μmol/kg) | administered dose recovered in the urine as the non-chelating O-glucuronide [4] |
| --- | --- | --- | --- | --- | --- | --- | --- | --- | --- | --- |
| 8.6 and 8.5 | 2.5 and 2.4 | 260 to 262 °C | 0.099 | Cc1cc(=O)c(O)c(C(=O)NC2CC2)n1C [Apo6617, 3-Hydroxy-1,6-dimethyl-4-oxo-1,4-dihydro-pyridine-2-carboxylic Acid Cyclopropylamide] | 24 ± 6 | 2411 ± 335 | 28 ± 8 µg/day/kg | 3228 ± 437 | 183 ± 20 µg/day/kg | – |
| 9.64 | 3.56 | – | – | Cc1c(O)c(=O)ccn1C [deferiprone, 1,2-dimethyl-3-hydroxy-4-pyridinone, reference compound] | – | – | – | – | – | more than 85% |
| – | – | 258 to 260 °C (dec.) | 0.109 | CNC(=O)c1c(O)c(=O)cc(C)n1C1CC1 [Apo6619, 1-Cyclopropyl-3-hydroxy-6-methyl-4-oxo-1,4-dihydro-pyridine-2-carboxylic Acid Methylamide] | 14 ± 4 | 3033 ± 1076 | 51 ± 15*τ μg/day/kg | 3831 ± 790 | 335±76 μg/day/kg and 335 ± 76*τ μg/day/kg | – |
